These results are taken from patent US7091225B2, “Substituted oxazoles and thiazoles as hPPAR alpha agonists” (SmithKline Beecham Corporation, priority 2000, dated 2006).

The target in one data set is T1, human PPAR gamma (Homo sapiens, UniProt P37231).
T1 construct: expressed in transfected cells; host or cells: CV-1 cells
T1 sequence (P37231 238-503 limits assumed): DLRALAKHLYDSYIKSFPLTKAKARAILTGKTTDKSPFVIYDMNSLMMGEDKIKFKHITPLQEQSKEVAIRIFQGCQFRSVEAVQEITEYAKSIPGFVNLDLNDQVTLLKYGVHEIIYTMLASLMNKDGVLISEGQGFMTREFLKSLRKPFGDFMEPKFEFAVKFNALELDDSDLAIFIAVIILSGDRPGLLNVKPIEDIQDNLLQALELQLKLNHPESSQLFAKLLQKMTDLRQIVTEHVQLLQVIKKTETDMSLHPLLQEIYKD
As to the kind of experiment: Transient transfection (transactivation) assay in CV-1 cells, hPPAR gamma. The data set is classed as cell-based. The following applies: PPAR transactivation activity; GAL4-PPAR LBD chimera in CV-1 cells; concentration achieving 50% of maximum activity; read-out: human γEC50. The text has this:
(§1) Most preferably, the compounds of formula (I) are selective hPPARalpha agonists. As used herein, a “selective hPPAR alpha agonist” is a hPPARalpha agonist whose EC50 for PPARalpha is at least 10 fold lower than its EC50 for PPAR gamma and PPAR delta. […] Most preferred compounds are greater than 100-fold selective hPPARalpha agonists (see Table 1).
(§2) Compounds were screened for functional potency in transient transfection assays in CV-1 cells for their ability to activate the PPAR subtypes (transactivation assay). A previously established chimeric receptor system was utilized to allow comparison of the relative transcriptional activity of the receptor subtypes on the same target gene and to prevent endogenous receptor activation from complicating the interpretation of results. See, for example, Lehmann, J. M.; Moore, L. B.; Smith-Oliver, T. A.; Wilkison, W. O.; Willson, T. M.; Kliewer, S. A., An antidiabetic thiazolidinedione is a high affinity ligand for peroxisome proliferator-activated receptor γ (PPARγ), J. Biol. Chem., 1995, 270, 12953–6. The ligand binding domains for murine and human PPAR alpha, PPAR gamma, and PPAR delta were each fused to the yeast transcription factor GAL4 DNA binding domain. […]

In a further data set the target is T2, human PPAR delta (Homo sapiens, UniProt Q03181).
T2 construct: expressed in transfected cells; host or cells: CV-1 cells
T2 sequence (Q03181 211-439 limits assumed): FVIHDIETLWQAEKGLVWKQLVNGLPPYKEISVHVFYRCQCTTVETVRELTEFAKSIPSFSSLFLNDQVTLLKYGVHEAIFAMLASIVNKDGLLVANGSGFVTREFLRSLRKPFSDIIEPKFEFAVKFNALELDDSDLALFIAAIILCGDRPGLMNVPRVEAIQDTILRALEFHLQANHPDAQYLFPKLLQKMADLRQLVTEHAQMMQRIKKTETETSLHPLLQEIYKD
Kind of data set: Transient transfection (transactivation) assay in CV-1 cells, hPPAR delta. The data set is classed as cell-based. The following applies: PPAR transactivation activity; GAL4-PPAR LBD chimera in CV-1 cells; concentration achieving 50% of maximum activity; read-out: human δEC50.
Source text: as §1, §2

The target of another data set is T3, human PPAR alpha (Homo sapiens, UniProt Q07869).
T3 construct: expressed in transfected cells; host or cells: CV-1 cells
T3 sequence (Q07869 239-466 limits assumed): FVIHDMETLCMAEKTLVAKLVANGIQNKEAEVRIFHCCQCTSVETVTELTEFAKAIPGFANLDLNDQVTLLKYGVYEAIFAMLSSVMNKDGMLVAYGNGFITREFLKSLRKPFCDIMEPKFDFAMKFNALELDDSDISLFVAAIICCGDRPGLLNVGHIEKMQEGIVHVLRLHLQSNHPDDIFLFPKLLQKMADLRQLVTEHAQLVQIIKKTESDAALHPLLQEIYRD
Kind of data set: Transient transfection (transactivation) assay in CV-1 cells, hPPAR alpha. The data set is classed as cell-based. The conditions noted are these: PPAR transactivation activity; GAL4-PPAR LBD chimera in CV-1 cells; concentration achieving 50% of maximum activity; read-out: human αEC50.
Source text: as §1, §2

Consider `Cc1nc(-c2ccc(C(F)(F)F)cc2)sc1COc1cccc(COC(C)(C)C(=O)O)c1` [Example 2, 2-methyl-2-{(3-[4-methyl-2-(4-trifluoromethylphenyl)thiazol-5-yl]methoxy)benzyloxy}propionic acid], for which the EC50 at human PPAR gamma was 2.6 µM; at human PPAR delta, 3.2 µM; at human PPAR alpha, 0.002 µM.

On to `Cc1nc(-c2ccc(C(F)(F)F)cc2)sc1COc1cccc(CSCC(=O)O)c1` [Example 4, 2-{[(3-[4-methyl-2-(4-trifluoromethylphenyl)thiazol-5-yl]methoxy)benzyl]thio}acetic acid], for which the EC50 amounted to 3.6 µM at human PPAR gamma, 1.6 µM on human PPAR delta and 0.01 µM at human PPAR alpha.

For orientation: melting point means the temperature of the solid-liquid transition. Consider `Cc1nc(-c2ccc(C(F)(F)F)cc2)sc1COc1cccc(COCC(=O)O)c1` [Example 6, 2-{(3-[4-methyl-2-(4-trifluoromethylphenyl)thiazol-5-yl]methoxy)benzyloxy}acetic acid], for which the melting point came to 121 °C.

Regarding `Cc1nc(-c2ccc(C(F)(F)F)cc2)sc1C(C)(C)Oc1cccc(COC(C)(C)C(=O)O)c1` [Example 10, 2-methyl-2-[3-{1-methyl-1-[4-methyl-2-(4-trifluoromethylphenyl)thiazol-5-yl]ethoxy}benzyloxy]propionic acid], the melting point is 136 °C.
